In US20220226341A1, “Pharmaceutical Composition for Alzheimer's Disease” (Kyoto University, priority 2019, published 2022):

Biological target: CDK9/CycT1 (Homo sapiens, UniProt P50750)
Assay: CDK9 inhibitory activity, Off-chip Mobility Shift Assay (MSA)
Type: biochemical
Settings: room temperature, one hour, read-out: IC50 value with respect to CDK9/CycT1
Protocol: [Assay of CDK9 Inhibitory Activity]
The tests for confirming CDK9 inhibitory activity were carried out by the following procedure according to Off-chip Mobility Shift Assay (MSA).
A substrate/ATP/metal solution (4×) was prepared with use of a kit buffer (20 mM HEPES, 0.01% Triton X-100, 5 mM DTT, pH7.5). A kinase solution (2×) was prepared with use of an assay buffer.
2) The test substance solutions, the substrate/ATP/metal solution, and the kinase solution were mixed in wells of a polypropylene plate, and were caused to react at room temperature for one hour.
3) A termination buffer (QuickScout Screening Assist MSA; Cama Biosciences Inc.)
was added thereto to stop the reaction.
4) Substrate peptides and phosphorylated peptides in the reaction solutions were separated and quantified in LabChip™ System (PerkinElmer Co., Ltd.).
5) Kinase reaction activities were evaluated based on a product ratio (P/(P+S)) calculated from a peak height of the substrate peptide (S) and a peak height of the phosphorylated peptide (P).

Sequence of CDK9/CycT1 (P50750 whole entry): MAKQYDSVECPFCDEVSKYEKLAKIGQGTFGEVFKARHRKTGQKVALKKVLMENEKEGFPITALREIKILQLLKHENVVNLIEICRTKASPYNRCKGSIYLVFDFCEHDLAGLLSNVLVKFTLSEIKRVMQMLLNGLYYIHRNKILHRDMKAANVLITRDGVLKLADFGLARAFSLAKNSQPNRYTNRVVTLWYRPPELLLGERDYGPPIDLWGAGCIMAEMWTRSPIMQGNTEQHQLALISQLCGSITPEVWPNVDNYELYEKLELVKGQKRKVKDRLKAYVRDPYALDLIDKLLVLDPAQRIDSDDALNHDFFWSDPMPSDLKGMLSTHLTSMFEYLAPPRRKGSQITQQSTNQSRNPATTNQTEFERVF
Sequence of CDK9/CycT1 (O60563 whole entry partner): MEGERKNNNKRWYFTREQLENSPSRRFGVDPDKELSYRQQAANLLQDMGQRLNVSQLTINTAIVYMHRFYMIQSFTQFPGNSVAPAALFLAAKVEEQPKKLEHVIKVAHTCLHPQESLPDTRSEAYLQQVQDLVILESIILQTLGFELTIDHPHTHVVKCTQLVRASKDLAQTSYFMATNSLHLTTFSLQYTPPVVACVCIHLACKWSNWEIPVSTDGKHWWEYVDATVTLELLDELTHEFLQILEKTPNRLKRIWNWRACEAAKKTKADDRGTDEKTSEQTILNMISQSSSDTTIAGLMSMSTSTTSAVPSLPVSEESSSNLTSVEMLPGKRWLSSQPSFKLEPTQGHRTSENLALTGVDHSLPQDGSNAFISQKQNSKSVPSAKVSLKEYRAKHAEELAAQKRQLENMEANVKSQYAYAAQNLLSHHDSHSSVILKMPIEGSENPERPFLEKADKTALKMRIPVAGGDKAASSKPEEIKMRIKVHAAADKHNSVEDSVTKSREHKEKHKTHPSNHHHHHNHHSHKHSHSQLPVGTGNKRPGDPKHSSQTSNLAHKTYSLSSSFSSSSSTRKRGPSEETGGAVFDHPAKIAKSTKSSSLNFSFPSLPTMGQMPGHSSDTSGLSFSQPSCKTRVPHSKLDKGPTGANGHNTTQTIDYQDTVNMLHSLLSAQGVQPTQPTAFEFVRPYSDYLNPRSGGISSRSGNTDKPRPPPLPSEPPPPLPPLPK

| Compound | IC50 |
| --- | --- |
| O=C(Nc1cc(F)ccc1N1CCCCC1)c1ccncc1 [Compound 2] | 13.1 µM |
| Fc1ccc(N2CCCCCC2)c(NC(=S)c2ccncc2)c1 [Compound 3] | 13.3 µM |
| O=C(Nc1cc(F)ccc1N1CCCCCC1)c1ccncc1 [Compound 4] | 13.7 µM |
